According to patent US3976673A, “4-Cyclopropylmethyleneoxy-3-chlorophenylacetic acid and salts thereof” (priority 1974, dated 1976):
“Also recorded” adds a separate entry of the source.

Tests used:
[1] = test system: hyperpyressia induced by bactopeptone; assay: Anti-piretic activity, hyperpyressia induced by bactopeptone; type: in vivo, Wistar male rats
Procedure: (§1) This was evaluated considering 2 kinds of hyperpyressia. Hyperpyressia induced by:
1 Milliliter of 5% aqueous solution of bactopeptone preincubated for 18 hours at 37°C were injected subcutaneously in Wistar male rats weighing 170-190 g. 4 Hours after treatment with the pyrogen, the animals were divided into groups of ten animals each and treated orally with the substances under examination. The rectal temperature was taken at the beginning of the test, 4 hours after the injection of the pyrogen agent and subsequently 1, 2 and 3 hours after the administration of the substances under test. The difference between the temperature taken in the treated animals and in controls is an index of the anti-pyretic activity.

[2] = test system: edema induced by carrageenin; assay: Anti-inflammatory activity, Winter's method (carrageenin edema); type: in vivo, male rats; conditions: 3 hours after carrageenin
Procedure: This was determined according to Winter's method which evaluates the inhibiting effect on the edema induced by carrageenin.
Male rats weighing 170-190 g were treated with the compounds under test and after 60 minutes 0.005 ml of a 1% aqueous solution of carrageenin were injected into the plantar zone of a hind paw of each animal. The volume of the treated paw was determined immediately after the injection and 3 hours later.
10 Animals were used for each dosage level. The increase difference in the volume of the paw of animals treated compared with the controls represents the index of the anti-inflammatory activity. The results obtained, expressed as percentage inhibition of the volume of the edema compared to the controls and evaluated as average value for each dose are listed in Table 3.

[3] = test system: hyperpyressia induced by yeast; assay: Anti-piretic activity, hyperpyressia induced by yeast; type: in vivo, albino rabbits
Procedure: as §1
To albino rabbits, 1 ml/kg of a 0.2% aqueous suspension of yeast were injected intravenously. The rectal temperature was teken at the beginning of the experiment and 60 minutes after the treatment with the pyrogen agent. Immediately after taking the temperature the compounds under test were administered orally to the animals and the rectal temperatures thereof were subsequently measured after 30, 60, 120 and 180 minutes. 10 Animals were treated for each dose level. The difference between the temperatures taken in the animals treated and in the controls is and index of the antipyretic activity. The results obtained by performing the two methods cited above for the determination of the antipyretic activity are listed in Tables 4 and 5 respectively and evaluated as average value for each dose.

[4] = test system: pain threshold of rat's paw made edematous by yeast; assay: Analgesic activity, Randall and Selitto (pain threshold of edematous rat paw); type: in vivo, male Wistar rats; conditions: vs basal values
Procedure: It was evaluated according to the following methods: a. Randall and Selitto The pressure to be exerted on a rat's paw previously made edematous by injecting into the plantar zone 0.1 ml of 20% suspension of yeast until appearance of painful reaction was measured in mmHg. The pain threshold was determined 30 minutes before and 30, 60, 90 and 120 minutes after the administration of the substances under test. 10 Male Wistar rats weighing 170-190 g were used for each dosage level and the corresponding average values considered for each dose. The percentage increase of the pain threshold compared to the basal values is taken as the index of the analgesic activity.

[5] = test system: abdominal stretching induced by phenylbenzoquinone; assay: Analgesic activity, Siegmund (phenylbenzoquinone abdominal stretching); type: in vivo, Swiss male mice; conditions: salts' dosage expressed as acid, vs water controls
Procedure: It was evaluated according to the following methods:
The antagonism towards the abdominal stretching induced by phenylbenzoquinone was evaluated. Swiss male mice weighing 19-21 g were treated orally with the compounds under examination 30 minutes before the endoperitoneal administration of 0.25 ml of a […] aqueous phenylbenzoquinone solution. The animals were kept under observation for 30 minutes after treatment with phenylbenzoquinone and the abdominal stretchings for each animal were counted. 10 Mice for each dosage level were used and the corresponding average values considered. The percentage decrease of the number of abdominal stretchings in the animals treated with the substances under test compared with the controls treated with water was taken as the index of the analgesic activity.

[6] = Chemical stability (general statement); type: physicochemical; conditions: statement in words
[7] = Toxicity / therapeutical index (general statement); conditions: statement in words
[8] = 15 mg/kg os, salts' dosage expressed as acid
[9] = 25 mg/kg os, salts' dosage expressed as acid
[10] = 5 mg/kg i.p., salts' dosage expressed as acid
[11] = 10 mg/kg os, salts' dosage expressed as acid
[12] = 25 mg/kg i.p., salts' dosage expressed as acid
[13] = 50 mg/kg i.p., salts' dosage expressed as acid
[14] = 50 mg/kg os, salts' dosage expressed as acid

Row | Compound | Rectal temperature, 1 hour after treatment [1, 8] | Rectal temperature, 2 hours after treatment [1, 8] | Rectal temperature, 3 hours after treatment [1, 8] | Rectal temperature, 1 hour after treatment [1, 9] | Rectal temperature, 2 hours after treatment [1, 9] | Rectal temperature, 3 hours after treatment [1, 9] | % Inhibition of oedema ([2]; 2.5 mg/kg i.p.) | % Inhibition of oedema [2, 10] | % Inhibition of oedema [2, 11] | % Inhibition of oedema [2, 12] | % Inhibition of oedema [2, 13] | % Inhibition of oedema [2, 14] | Rectal temperature, 30 mins. after treatment ([3]; 10 mg/kg per os) | % Increase of pain threshold [4, 12] | % Increase of pain threshold [4, 9] | % Increase of pain threshold [4, 13] | % Increase of pain threshold [4, 14] | % Decrease in number of stretchings ([5]; 25 mg/kg os) | % Decrease in number of stretchings ([5]; 50 mg/kg os) | % Decrease in number of stretchings ([5]; 100 mg/kg os) | further results
1 | C=CCOc1ccc(CC(=O)O)cc1Cl [4-allyloxy-3-chlorophenylacetic acid, reference compound] | 38.2 °C | 38.7 °C | 38.4 °C | 37.6 °C | 38.4 °C | 38.5 °C | 0% | 10% | 18% | 25% | 57% | 34% | 40.30 °C | 7% | 15% | 30% | 57% | 27% | 58% | 96% | Rectal temperature, 1 hour after treatment ([1]; 50 mg/kg os): 37.7 °C; Rectal temperature, 2 hours after treatment ([1]; 50 mg/kg os): 37.5 °C; Rectal temperature, 3 hours after treatment ([1]; 50 mg/kg os): 37.7 °C; Rectal temperature, 60 mins. after treatment ([3]; 10 mg/kg per os): 40.13 °C; Rectal temperature, 120 mins. after treatment ([3]; 10 mg/kg per os): 40.06 °C; Rectal temperature, 180 mins. after treatment ([3]; 10 mg/kg per os): 40.03 °C; Rectal temperature, 30 mins. after treatment ([3]; 25 mg/kg per os): 40.35 °C; Rectal temperature, 60 mins. after treatment ([3]; 25 mg/kg per os): 39.85 °C; Rectal temperature, 120 mins. after treatment ([3]; 25 mg/kg per os): 39.30 °C; Rectal temperature, 180 mins. after treatment ([3]; 25 mg/kg per os): 39.25 °C; % Increase of pain threshold ([4]; 100 mg/kg i.p.): 93%; % Increase of pain threshold ([4]; 100 mg/kg os): 92%
2 | O=C(O)Cc1ccc(OCC2CC2)c(Cl)c1 [4-cyclopropylmethyleneoxy-3-chlorophenylacetic acid] | 37.7 °C | 38.0 °C | 37.6 °C | 37.3 °C | 37.3 °C | 37.1 °C | 15% | 37% | 31% | 55% | 61% | 65% | 40.05 °C | 27% | 44% | 105% | 120% | 51% | 77% | 98% | Rectal temperature, 1 hour after treatment ([1]; 6 mg/kg os): 38.7 °C; Rectal temperature, 2 hours after treatment ([1]; 6 mg/kg os): 39.3 °C; Rectal temperature, 3 hours after treatment ([1]; 6 mg/kg os): 39.1 °C; stability of chemical structure [6]: noticeable stability; also recorded: chemically stable; toxicity [7]: low toxicity; Rectal temperature, 30 mins. after treatment ([3]; 5 mg/kg per os): 40.17 °C; Rectal temperature, 60 mins. after treatment ([3]; 5 mg/kg per os): 40.15 °C; Rectal temperature, 120 mins. after treatment ([3]; 5 mg/kg per os): 40.55 °C; Rectal temperature, 180 mins. after treatment ([3]; 5 mg/kg per os): 40.02 °C; Rectal temperature, 60 mins. after treatment ([3]; 10 mg/kg per os): 39.90 °C; Rectal temperature, 120 mins. after treatment ([3]; 10 mg/kg per os): 39.48 °C; Rectal temperature, 180 mins. after treatment ([3]; 10 mg/kg per os): 39.32 °C; Rectal temperature, 30 mins. after treatment ([3]; 25 mg/kg per os): 40.65 °C; Rectal temperature, 60 mins. after treatment ([3]; 25 mg/kg per os): 39.95 °C; Rectal temperature, 120 mins. after treatment ([3]; 25 mg/kg per os): 39.20 °C; Rectal temperature, 180 mins. after treatment ([3]; 25 mg/kg per os): 39.05 °C; % Increase of pain threshold ([4]; 100 mg/kg i.p.): 176%; % Increase of pain threshold ([4]; 100 mg/kg os): 180%
3 | O=C(O)Cc1ccc(OCC2CC2)c(Cl)c1 [DL-lysine 4-cyclopropylmethyleneoxy-3-chlorophenylacetate] | 37.6 °C | 38.0 °C | 37.8 °C | 37.4 °C | 37.0 °C | 36.7 °C |  | 38% | 41% | 64% |  | 81% |  | 83% | 30% | 103% | 104% | 60% | 90% | 100% | 
4 | O=C([O-])Cc1ccc(OCC2CC2)c(Cl)c1.O=C([O-])Cc1ccc(OCC2CC2)c(Cl)c1.[Cu+2] [copper 4-cyclopropylmethyleneoxy-3-chlorophenylacetate] | 38.1 °C | 37.7 °C | 36.7 °C | 37.8 °C | 37.2 °C | 36.6 °C |  | 32% | 38% | 51% | 61% | 71% |  | 67% | 62% | 121% | 116% | 50% | 81% | 99% | 
5 | CCCCC1C(=O)N(c2ccccc2)N(c2ccccc2)C1=O [phenylbutazone, 4-butyl-1,2-diphenyl-3,5-dioxopyrazoline, reference compound] | 38.3 °C | 38.8 °C | 38.6 °C | 38.1 °C | 38.9 °C | 38.3 °C | 0% | 3% | 0% | 22% | 55% | 28% |  | 3% | 33% | 42% | 94% | 3% | 65% | 98% | Rectal temperature, 1 hour after treatment ([1]; 100 mg/kg os): 38.1 °C; Rectal temperature, 2 hours after treatment ([1]; 100 mg/kg os): 37.6 °C; Rectal temperature, 3 hours after treatment ([1]; 100 mg/kg os): 37.4 °C
